Patent US20090269403A1, “ORAL CONTRACEPTIVE DOSAGE FORMS AND METHODS OF MAKING SUCH DOSAGE FORMS” (priority 2008, published 2009)

Tests used:
[1] = water at various pH values; cited from earlier work
[2] = Drug release from enteric-coated drospirenone/ethinylestradiol tablets (USP Type II paddle dissolution); assay type: physicochemical; settings: Example 19 enteric-coated tablets, second test run, 75 rpm, 37° C.
Experimental: The rate at which the tablets release the drospirenone and ethinylestradiol was determined. Each tablet was placed in 0.1 N HCl and stirred for 2 hours. After this time, the pH of each of the mixtures containing the tablets was adjusted to pH 6.8 with phosphate buffer and stirred for 4 hours using a USP Type II paddle apparatus at 75 rpm and 37° C. A second test run gave the results listed below in Table 12. A graph of the drug release profiles for the second test run is depicted in FIG. 4.

[3] = acidic conditions (such as encountered in the gastric environment); cited from earlier work

Average % Drug Release (n = 6), 5 min ([2]; 5 min, in 0.1 N HCl): 0.0%
Average % Drug Release (n = 6), 120 min ([2]; 120 min, end of 2 hours in 0.1 N HCl): 0.0%
Average % Drug Release (n = 6), 130 min ([2]; 130 min, 2 hours 0.1 N HCl, then pH 6.8 phosphate buffer): 29.1%
Average % Drug Release (n = 6), 140 min ([2]; 140 min, 2 hours 0.1 N HCl, then pH 6.8 phosphate buffer): 108.4%
Average % Drug Release (n = 6), 150 min ([2]; 150 min, 2 hours 0.1 N HCl, then pH 6.8 phosphate buffer): 105.4%
Average % Drug Release (n = 6), 165 min ([2]; 165 min, 2 hours 0.1 N HCl, then pH 6.8 phosphate buffer): 105.2%
Average % Drug Release (n = 6), 180 min ([2]; 180 min, 2 hours 0.1 N HCl, then pH 6.8 phosphate buffer): 105.0%
Average % Drug Release (n = 6), 240 min ([2]; 240 min, 2 hours 0.1 N HCl, then pH 6.8 phosphate buffer): 103.9%
Average % Drug Release (n = 6), 300 min ([2]; 300 min, 2 hours 0.1 N HCl, then pH 6.8 phosphate buffer): 102.5%
Compound: C[C@]12CCC(=O)C=C1[C@@H]1C[C@@H]1[C@H]1[C@@H]3[C@@H]4C[C@@H]4[C@@]4(CCC(=O)O4)[C@@]3(C)CC[C@@H]12 [Drospirenone, 6β,7β,15β, 16β-dimethylene-3-oxo-17a-pregn-4-ene-21,17-carbolactone]
solubility in water [1]: only sparingly soluble in water
stability under acidic conditions [3]: undergoes isomerization to a form that is inactive
